The text below walks through data of PubChem BioAssay AID330 (DTP/NCI, 2004).

The test system of this assay is P388 leukemia ip, CD2F1 mice, survival T/C. As to the kind of experiment: NCI In Vivo Anticancer Drug Screen. Data for tumor model P388 Leukemia (intraperitoneal) in CD2F1 (CDF1) mice. Conditions: endpoint: median survival time, higher = longer survival. The essentials:
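Mice carrying the transplanted tumor received test compound or vehicle. Survival was recorded in each group, and the value is the treated-group measurement divided by that of the vehicle-treated control group.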

Setting [1] is: dose: 50.0 mg/kg/injection, schedule: Q01DX005 (ip), vehicle: saline with Tween-80.
[2] abbreviates: dose: 100.0 mg/kg/injection, schedule: Q01DX005 (ip), vehicle: saline with Tween-80.
[3] abbreviates: dose: 200.0 mg/kg/injection, schedule: Q01DX005 (ip), vehicle: saline with Tween-80.
Setting [4] is: dose: 60.0 mg/kg/injection, schedule: Q01DX005 (ip), vehicle: saline with Tween-80.
Where [5] appears, read: dose: 120.0 mg/kg/injection, schedule: Q01DX005 (ip), vehicle: saline with Tween-80.
Where [6] appears, read: dose: 240.0 mg/kg/injection, schedule: Q01DX005 (ip), vehicle: saline with Tween-80.
Setting [7] is: dose: 12.5 mg/kg/injection, schedule: Q01DX009 (ip), vehicle: Klucel (hydroxypropylcellulose) (HPC).
[8] abbreviates: dose: 25.0 mg/kg/injection, schedule: Q01DX009 (ip), vehicle: Klucel (hydroxypropylcellulose) (HPC).
The mark [9] stands for this setting: dose: 50.0 mg/kg/injection, schedule: Q01DX009 (ip), vehicle: Klucel (hydroxypropylcellulose) (HPC).
The mark [10] stands for this setting: dose: 100.0 mg/kg/injection, schedule: Q01DX009 (ip), vehicle: Klucel (hydroxypropylcellulose) (HPC).
Setting [11] is: dose: 50.0 mg/kg/injection, schedule: Q01DX009 (ip), vehicle: saline.
Setting [12] is: dose: 50.0 mg/kg/injection, schedule: Q01DX005 (ip), vehicle: Klucel (hydroxypropylcellulose) (HPC).

Several values for one entry are separate records, joined by “and”; a condition that tells them apart may be missing. Equal values may be shown once. Toxic doses and inconclusive results are not listed.

`Nc1nc(N)c2c(n1)NCN(O)C2`: the T/C is 97 % of control under setting [1], 99 % of control under setting [2] and 100 % of control under setting [3].
As for `Cc1ccc2c(c1)C1(SC(C)C(=O)N1c1ccc(Br)cc1)C(=O)N2` (stereo not drawn), the T/C is 94 % of control under setting [4], 96 % of control under setting [5] and 97 % of control under setting [6].
Turning to `Cc1ccc(S(=O)(=O)N/N=C/c2ccc(Cl)cc2O)cc1`, the T/C is 102 % of control (dose: 12.5 mg/kg/injection, schedule: Q01DX005 (ip), vehicle: distilled water + Tween-80); 99 % of control (dose: 25.0 mg/kg/injection, schedule: Q01DX005 (ip), vehicle: distilled water + Tween-80); 100 % of control (dose: 50.0 mg/kg/injection, schedule: Q01DX005 (ip), vehicle: distilled water + Tween-80); 100 % of control (dose: 100.0 mg/kg/injection, schedule: Q01DX005 (ip), vehicle: distilled water + Tween-80); 100 % of control (dose: 200.0 mg/kg/injection, schedule: Q01DX005 (ip), vehicle: distilled water + Tween-80).
For the molecule `CN(C)C(=S)S(=O)(=O)c1ccccc1`, the T/C under setting [7] is 123 % of control, the T/C under setting [8] is 123 % of control and the T/C under setting [9] is 123 % of control.
As to `CCOC(=O)CCC(CNC(=O)c1ccccc1)NC(=O)c1ccccc1` (stereo not drawn), the T/C was 98 % of control under setting [4], 90 % of control under setting [5] and 88 % of control under setting [6].
`CC(=O)c1cc([N+](=O)[O-])c(N)s1`: the T/C reads like this: under setting [7], 111 % of control; under setting [8], 111 % of control; under setting [9], 95 % of control; under setting [10], 107 % of control.
On to `Cc1cc(Nc2ccc(O)cc2)nc(Nc2ccc(O)cc2)n1`, for which the T/C by setting is: under setting [4], 99 % of control; under setting [5], 99 % of control; under setting [6], 103 % of control.
For `CNC(C#N)C(O)c1ccccc1` (stereo not drawn), the T/C was 92 % of control (dose: 12.5 mg/kg/injection, schedule: Q01DX009 (ip), vehicle: saline); 92 % of control (dose: 25.0 mg/kg/injection, schedule: Q01DX009 (ip), vehicle: saline); 93 % of control and 97 % of control under setting [11].
With `Nc1cc(-c2ccc(Cl)cc2)nn1-c1nnc2c(n1)[nH]c1ccccc12`, the T/C by setting is: (dose: 100.0 mg/kg/injection, schedule: Q04DX002 (ip), vehicle: saline with Tween-80) 92 % of control; (dose: 200.0 mg/kg/injection, schedule: Q04DX002 (ip), vehicle: saline with Tween-80) 94 % of control; (dose: 400.0 mg/kg/injection, schedule: Q04DX002 (ip), vehicle: saline with Tween-80) 99 % of control.
`Cc1nc2c([N+](=O)[O-])c(NCCCc3ccccc3)c([N+](=O)[O-])cc2[nH]1`: the T/C by setting is: (dose: 50.0 mg/kg/injection, schedule: Q04DX003 (ip), vehicle: saline with Tween-80) 94 % of control; (dose: 100.0 mg/kg/injection, schedule: Q04DX003 (ip), vehicle: saline with Tween-80) 100 % of control and 96 % of control.
In the case of `CS(=O)(=O)OCC(O)C(O)C(O)C(O)COS(C)(=O)=O` (stereo not drawn), the T/C (dose: 50.0 mg/kg/injection, schedule: Q01DX010 (ip), vehicle: saline) is 100 % of control; the T/C (dose: 100.0 mg/kg/injection, schedule: Q01DX010 (ip), vehicle: saline) is 100 % of control; the T/C (dose: 200.0 mg/kg/injection, schedule: Q01DX010 (ip), vehicle: saline) is 172 % of control; the T/C (dose: 400.0 mg/kg/injection, schedule: Q01DX010 (ip), vehicle: saline) was 209 % of control.
`C[Si](C)(C)C#CCO`: the T/C is, setting by setting: under setting [1], 101 % of control; under setting [2], 100 % of control; under setting [3], 105 % of control.
`C=C(C)C1CC2(C)C(C)CC(O)CC2C(OC(=O)/C=C(/C)CC)C1O` (stereo not drawn): the T/C was 97 % of control under setting [7], 98 % of control under setting [8], 97 % of control under setting [9] and 97 % of control under setting [10].
In the case of `COc1ccc2c3c([nH]c2c1[N+](=O)[O-])C(C)NCC3` (stereo not drawn), the T/C is, setting by setting: (dose: 12.5 mg/kg/injection, schedule: Q01DX005 (ip), vehicle: Klucel (hydroxypropylcellulose) (HPC)) 101 % of control; (dose: 25.0 mg/kg/injection, schedule: Q01DX005 (ip), vehicle: Klucel (hydroxypropylcellulose) (HPC)) 92 % of control; under setting [12], 92 % of control.
Turning to `CCOC(=O)/C=C(\C(=O)OCC)N(O)C(=O)CN1C(=O)c2ccccc2C1=O`, the T/C reads like this: (dose: 50.0 mg/kg/injection, schedule: Q01DX001 (ip), vehicle: saline with Tween-80) 106 % of control; (dose: 100.0 mg/kg/injection, schedule: Q01DX001 (ip), vehicle: saline with Tween-80) 105 % of control; (dose: 200.0 mg/kg/injection, schedule: Q01DX001 (ip), vehicle: saline with Tween-80) 98 % of control; (dose: 400.0 mg/kg/injection, schedule: Q01DX001 (ip), vehicle: saline with Tween-80) 93 % of control.
As for `COc1ccc(CN(CCc2ccc(O)cc2)C(=O)C(F)(F)F)cc1O`, the T/C runs as follows: (dose: 6.25 mg/kg/injection, schedule: Q01DX009 (ip), vehicle: saline with Tween-80) 99 % of control; (dose: 12.5 mg/kg/injection, schedule: Q01DX009 (ip), vehicle: saline with Tween-80) 110 % of control; (dose: 25.0 mg/kg/injection, schedule: Q01DX009 (ip), vehicle: saline with Tween-80) 107 % of control; (dose: 50.0 mg/kg/injection, schedule: Q01DX009 (ip), vehicle: saline with Tween-80) 100 % of control.
As to `CN=c1ccc2nc3ccc(N)cc3sc-2c1`, the T/C runs as follows: (dose: 12.5 mg/kg/injection, schedule: Q01DX005 (ip), vehicle: saline) 105 % of control; (dose: 25.0 mg/kg/injection, schedule: Q01DX005 (ip), vehicle: saline) 107 % of control; (dose: 50.0 mg/kg/injection, schedule: Q01DX005 (ip), vehicle: saline) 103 % of control.
With `Cc1cccnc1OCC(=O)O`, the T/C (dose: 60.0 mg/kg/injection, schedule: Q01DX005 (ip), vehicle: Klucel (hydroxypropylcellulose) (HPC)) is 100 % of control and 93 % of control; the T/C (dose: 120.0 mg/kg/injection, schedule: Q01DX005 (ip), vehicle: Klucel (hydroxypropylcellulose) (HPC)) is 103 % of control and 90 % of control; the T/C (dose: 240.0 mg/kg/injection, schedule: Q01DX005 (ip), vehicle: Klucel (hydroxypropylcellulose) (HPC)) was 100 % of control and 92 % of control.
In the case of `O=S1(F)=NP(N2CC2)(N2CC2)=NP(N2CC2)(N2CC2)=N1` (stereo not drawn), the T/C (dose: 5.0 mg/kg/injection, schedule: Q04DX003 (ip), vehicle: saline) is 86 % of control; the T/C (dose: 10.0 mg/kg/injection, schedule: Q04DX003 (ip), vehicle: saline) was 102 % of control; the T/C (dose: 20.0 mg/kg/injection, schedule: Q04DX003 (ip), vehicle: saline) is 86 % of control; the T/C (dose: 40.0 mg/kg/injection, schedule: Q04DX003 (ip), vehicle: saline) is 234 % of control.
Consider `CC1(C)OC2COC3OC(C)(C)OC3(/C=N\NC(=O)c3cc4ccccc4[nH]3)C2O1` (stereo not drawn), for which the T/C is 98 % of control under setting [12]; 104 % of control (dose: 100.0 mg/kg/injection, schedule: Q01DX005 (ip), vehicle: Klucel (hydroxypropylcellulose) (HPC)); 102 % of control (dose: 200.0 mg/kg/injection, schedule: Q01DX005 (ip), vehicle: Klucel (hydroxypropylcellulose) (HPC)).
`C[CH](C)[GeH]([CH](C)C)[CH](C)C`: the T/C by setting is: under setting [11], 91 % of control; (dose: 100.0 mg/kg/injection, schedule: Q01DX009 (ip), vehicle: saline) 91 % of control.
For `CCOC(=O)C1C(c2cc(OC)c(OC)c(OC)c2)c2cc3c(cc2OC1(C)OC)OCO3` (stereo not drawn), the T/C runs as follows: under setting [4], 86 % of control; under setting [5], 86 % of control; under setting [6], 88 % of control.
Take `COCC1(CCC(C)=C(C)C)Nc2ccc(C(=O)O)cc2CC1Cl` (stereo not drawn): the T/C runs as follows: (dose: 1.25 mg/kg/injection, schedule: Q01DX005 (ip), vehicle: Klucel (hydroxypropylcellulose) (HPC)) 98 % of control; (dose: 2.5 mg/kg/injection, schedule: Q01DX005 (ip), vehicle: Klucel (hydroxypropylcellulose) (HPC)) 101 % of control.
Regarding `COc1c2c(cc3c1OCO3)CCN(C)C2`, the T/C reads like this: (dose: 10.0 mg/kg/injection, schedule: Q01DX009 (ip), vehicle: saline) 106 % of control; (dose: 20.0 mg/kg/injection, schedule: Q01DX009 (ip), vehicle: saline) 101 % of control; (dose: 40.0 mg/kg/injection, schedule: Q01DX009 (ip), vehicle: saline) 98 % of control; (dose: 80.0 mg/kg/injection, schedule: Q01DX009 (ip), vehicle: saline) 104 % of control.
